Earlier results, collected in patent publication US20240325452A1, “METHODS AND COMPOSITIONS FOR DREADD-ACTIVATABLE CELLS FOR NEURAL REPAIR” (Drexel University, priority 2023, published 2024).

Experiments:
hM3Dq = hM3Dq (Homo sapiens, UniProt P20309, A239G/Y149C); conditions: hM3 with two point mutations
[1] = it has been reported
hM3Dq and hM4Di DREADDs = conditions: marketed ligands, active in vivo

Chain of hM3Dq (P20309 whole entry Y149C/A239G): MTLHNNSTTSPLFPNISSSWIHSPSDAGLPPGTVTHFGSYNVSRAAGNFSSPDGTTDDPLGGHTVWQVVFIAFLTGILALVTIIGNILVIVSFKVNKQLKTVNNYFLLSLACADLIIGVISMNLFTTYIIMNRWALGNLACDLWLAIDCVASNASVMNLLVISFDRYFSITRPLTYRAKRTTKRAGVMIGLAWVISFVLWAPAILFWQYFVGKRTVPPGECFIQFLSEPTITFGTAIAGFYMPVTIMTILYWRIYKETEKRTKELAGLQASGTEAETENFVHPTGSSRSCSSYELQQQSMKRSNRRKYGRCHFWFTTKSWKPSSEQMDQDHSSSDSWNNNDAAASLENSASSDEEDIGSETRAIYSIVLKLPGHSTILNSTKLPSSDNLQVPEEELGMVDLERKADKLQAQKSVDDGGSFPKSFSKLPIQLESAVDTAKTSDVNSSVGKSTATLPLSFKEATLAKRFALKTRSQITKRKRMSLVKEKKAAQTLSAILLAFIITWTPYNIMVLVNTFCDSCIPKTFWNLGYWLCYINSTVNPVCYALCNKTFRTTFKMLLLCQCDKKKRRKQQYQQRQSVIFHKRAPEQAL

C[N+]1([O-])CCN(C2=Nc3cc(Cl)ccc3Nc3ccccc32)CC1 [CNO, clozapine N-oxide]
potency at mutant receptor (hM3Dq): nanomolar potency

c1ccc2c(c1)N=C(N1CCNCC1)c1ccccc1N2 [Compound 21]
bioavailability, pharmacokinetic properties and brain penetrability [1]: excellent
reverse metabolism to clozapine [1]: does not undergo reverse metabolism to clozapine

CCN1CCN(C2=Nc3cc(Cl)ccc3Nc3c(F)cccc32)CC1 [JHU37160]
potency and affinity (hM3Dq and hM4Di DREADDs): high potency and affinity
